Here are results for 20 compounds from ChEMBL document CHEMBL5226343, “Structure-Activity Relationship of USP5 Inhibitors” (J Med Chem, 2021).

In test [1] the target is T1, Protein deacetylase HDAC6 (Homo sapiens, UniProt Q9UBN7).
T1 sequence (Q9UBN7 whole entry): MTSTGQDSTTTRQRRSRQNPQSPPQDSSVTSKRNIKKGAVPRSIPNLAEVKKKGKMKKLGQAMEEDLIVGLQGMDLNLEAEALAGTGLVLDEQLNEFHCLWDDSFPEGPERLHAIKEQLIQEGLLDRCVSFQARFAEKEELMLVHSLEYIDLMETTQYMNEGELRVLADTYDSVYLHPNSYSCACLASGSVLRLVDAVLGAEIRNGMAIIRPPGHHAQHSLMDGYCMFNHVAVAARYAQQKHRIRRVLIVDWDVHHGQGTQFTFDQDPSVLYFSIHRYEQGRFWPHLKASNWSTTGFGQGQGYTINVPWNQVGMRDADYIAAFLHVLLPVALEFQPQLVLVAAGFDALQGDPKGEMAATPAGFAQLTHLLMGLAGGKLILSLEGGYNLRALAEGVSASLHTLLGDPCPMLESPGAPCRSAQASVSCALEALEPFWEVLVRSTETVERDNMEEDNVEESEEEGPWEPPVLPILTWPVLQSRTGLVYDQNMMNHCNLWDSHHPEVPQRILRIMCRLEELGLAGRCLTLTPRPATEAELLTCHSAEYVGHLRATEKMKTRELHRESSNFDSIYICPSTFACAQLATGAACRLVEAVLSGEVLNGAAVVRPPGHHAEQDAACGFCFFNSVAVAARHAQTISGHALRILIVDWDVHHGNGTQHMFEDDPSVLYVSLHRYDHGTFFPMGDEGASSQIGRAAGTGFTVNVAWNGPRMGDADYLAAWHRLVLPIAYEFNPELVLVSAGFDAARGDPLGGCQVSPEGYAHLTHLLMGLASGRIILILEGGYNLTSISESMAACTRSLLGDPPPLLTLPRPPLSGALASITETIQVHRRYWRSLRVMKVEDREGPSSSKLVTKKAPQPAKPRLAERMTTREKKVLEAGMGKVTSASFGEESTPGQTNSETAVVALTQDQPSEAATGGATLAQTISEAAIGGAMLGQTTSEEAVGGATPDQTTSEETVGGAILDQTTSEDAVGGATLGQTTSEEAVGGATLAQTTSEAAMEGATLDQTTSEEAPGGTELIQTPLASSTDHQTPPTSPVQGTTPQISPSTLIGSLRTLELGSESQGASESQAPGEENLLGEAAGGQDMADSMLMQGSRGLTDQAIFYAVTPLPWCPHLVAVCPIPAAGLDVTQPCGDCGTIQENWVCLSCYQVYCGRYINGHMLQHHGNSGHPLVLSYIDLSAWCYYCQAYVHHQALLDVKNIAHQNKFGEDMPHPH

In test [2] the target is T2, Ubiquitin carboxyl-terminal hydrolase 5 (Homo sapiens, UniProt P45974).
T2 sequence (P45974 whole entry): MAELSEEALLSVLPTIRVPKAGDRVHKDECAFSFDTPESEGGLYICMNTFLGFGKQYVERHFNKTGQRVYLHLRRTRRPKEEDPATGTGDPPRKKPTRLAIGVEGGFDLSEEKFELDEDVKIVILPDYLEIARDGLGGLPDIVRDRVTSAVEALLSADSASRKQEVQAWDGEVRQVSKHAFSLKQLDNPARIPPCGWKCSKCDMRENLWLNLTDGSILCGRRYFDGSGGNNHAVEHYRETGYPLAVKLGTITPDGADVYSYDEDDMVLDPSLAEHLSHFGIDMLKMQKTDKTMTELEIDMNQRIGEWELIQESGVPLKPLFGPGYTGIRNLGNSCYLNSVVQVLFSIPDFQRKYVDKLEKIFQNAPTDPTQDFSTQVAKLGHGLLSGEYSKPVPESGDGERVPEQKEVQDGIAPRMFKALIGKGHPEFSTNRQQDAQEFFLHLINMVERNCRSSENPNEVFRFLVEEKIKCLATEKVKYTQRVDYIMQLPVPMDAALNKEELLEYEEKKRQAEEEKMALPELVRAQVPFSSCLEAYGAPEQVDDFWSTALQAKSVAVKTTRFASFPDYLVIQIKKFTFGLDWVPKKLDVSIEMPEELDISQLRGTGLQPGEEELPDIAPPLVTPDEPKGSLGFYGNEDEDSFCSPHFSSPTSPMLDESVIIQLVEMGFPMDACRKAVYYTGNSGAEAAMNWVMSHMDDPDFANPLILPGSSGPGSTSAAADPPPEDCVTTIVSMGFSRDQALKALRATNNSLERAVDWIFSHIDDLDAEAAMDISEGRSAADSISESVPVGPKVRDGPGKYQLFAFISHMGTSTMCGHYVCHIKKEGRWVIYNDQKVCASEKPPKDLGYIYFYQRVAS
The test can be described thus: Inhibition of USP5 (unknown origin).

Test [3] concerns the target T3, Ubiquitin carboxyl-terminal hydrolase 4 (Homo sapiens, UniProt Q13107).
T3 sequence (Q13107 whole entry): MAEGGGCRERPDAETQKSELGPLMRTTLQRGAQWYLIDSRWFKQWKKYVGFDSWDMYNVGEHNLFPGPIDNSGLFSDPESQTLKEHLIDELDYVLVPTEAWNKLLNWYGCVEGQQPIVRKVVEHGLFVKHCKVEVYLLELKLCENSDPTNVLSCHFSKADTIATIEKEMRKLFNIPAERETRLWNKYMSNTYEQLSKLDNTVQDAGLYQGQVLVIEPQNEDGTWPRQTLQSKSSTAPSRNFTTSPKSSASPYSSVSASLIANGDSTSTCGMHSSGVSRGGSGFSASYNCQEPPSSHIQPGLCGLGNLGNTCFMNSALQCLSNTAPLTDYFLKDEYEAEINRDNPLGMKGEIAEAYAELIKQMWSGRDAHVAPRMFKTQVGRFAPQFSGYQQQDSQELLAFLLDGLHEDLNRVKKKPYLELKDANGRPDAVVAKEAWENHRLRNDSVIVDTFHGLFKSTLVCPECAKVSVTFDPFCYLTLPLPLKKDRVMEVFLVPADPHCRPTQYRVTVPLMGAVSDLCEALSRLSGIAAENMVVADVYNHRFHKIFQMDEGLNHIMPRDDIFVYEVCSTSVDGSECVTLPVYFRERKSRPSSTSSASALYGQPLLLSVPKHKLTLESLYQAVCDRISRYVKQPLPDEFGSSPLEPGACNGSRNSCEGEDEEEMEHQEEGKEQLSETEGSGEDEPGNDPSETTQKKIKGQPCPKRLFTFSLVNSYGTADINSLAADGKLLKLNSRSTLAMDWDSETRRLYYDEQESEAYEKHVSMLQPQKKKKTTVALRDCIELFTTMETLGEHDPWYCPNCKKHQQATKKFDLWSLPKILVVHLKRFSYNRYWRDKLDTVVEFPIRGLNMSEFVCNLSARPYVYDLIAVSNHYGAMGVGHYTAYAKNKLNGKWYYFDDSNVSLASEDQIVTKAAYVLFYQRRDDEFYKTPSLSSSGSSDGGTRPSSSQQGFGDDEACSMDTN
The experiment in a line: Inhibition of USP4 (unknown origin).

The target of test [4] is Ubiquitin carboxyl-terminal hydrolase 7 (Homo sapiens, UniProt Q93009). The test can be described thus: Inhibition of USP7 (unknown origin).
Ubiquitin carboxyl-terminal hydrolase 7, sequence (Q93009 whole entry): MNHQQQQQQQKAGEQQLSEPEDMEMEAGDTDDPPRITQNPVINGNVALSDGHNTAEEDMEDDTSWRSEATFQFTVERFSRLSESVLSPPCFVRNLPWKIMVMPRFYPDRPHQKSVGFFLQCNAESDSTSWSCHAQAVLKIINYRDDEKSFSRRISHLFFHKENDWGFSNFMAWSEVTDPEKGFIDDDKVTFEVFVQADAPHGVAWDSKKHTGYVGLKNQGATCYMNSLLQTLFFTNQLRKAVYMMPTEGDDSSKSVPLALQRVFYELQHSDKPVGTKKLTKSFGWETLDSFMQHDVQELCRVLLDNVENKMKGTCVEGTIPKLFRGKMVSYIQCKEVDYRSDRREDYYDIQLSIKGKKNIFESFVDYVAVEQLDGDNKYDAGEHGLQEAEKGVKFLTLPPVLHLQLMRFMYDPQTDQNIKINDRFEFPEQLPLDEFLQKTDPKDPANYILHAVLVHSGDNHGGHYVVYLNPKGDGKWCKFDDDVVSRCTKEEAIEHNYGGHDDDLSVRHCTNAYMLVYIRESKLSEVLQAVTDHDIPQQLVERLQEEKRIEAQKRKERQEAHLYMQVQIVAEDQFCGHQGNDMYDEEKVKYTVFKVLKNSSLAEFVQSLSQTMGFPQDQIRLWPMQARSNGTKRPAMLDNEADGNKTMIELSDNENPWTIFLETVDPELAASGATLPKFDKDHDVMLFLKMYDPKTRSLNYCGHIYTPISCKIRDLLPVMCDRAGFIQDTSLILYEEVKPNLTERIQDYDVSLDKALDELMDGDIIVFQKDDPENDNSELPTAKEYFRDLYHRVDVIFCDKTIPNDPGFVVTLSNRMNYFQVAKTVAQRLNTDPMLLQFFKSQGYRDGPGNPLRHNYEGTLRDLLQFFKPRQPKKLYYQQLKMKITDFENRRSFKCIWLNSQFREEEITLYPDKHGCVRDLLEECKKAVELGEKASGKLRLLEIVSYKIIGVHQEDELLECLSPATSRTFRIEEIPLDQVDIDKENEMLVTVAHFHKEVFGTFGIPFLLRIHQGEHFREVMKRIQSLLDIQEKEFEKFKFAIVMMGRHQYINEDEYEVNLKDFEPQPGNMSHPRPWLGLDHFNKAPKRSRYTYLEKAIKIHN
The target in test [5] is T4, Ubiquitin carboxyl-terminal hydrolase 2 (Homo sapiens, UniProt O75604).
T4 sequence (O75604 whole entry): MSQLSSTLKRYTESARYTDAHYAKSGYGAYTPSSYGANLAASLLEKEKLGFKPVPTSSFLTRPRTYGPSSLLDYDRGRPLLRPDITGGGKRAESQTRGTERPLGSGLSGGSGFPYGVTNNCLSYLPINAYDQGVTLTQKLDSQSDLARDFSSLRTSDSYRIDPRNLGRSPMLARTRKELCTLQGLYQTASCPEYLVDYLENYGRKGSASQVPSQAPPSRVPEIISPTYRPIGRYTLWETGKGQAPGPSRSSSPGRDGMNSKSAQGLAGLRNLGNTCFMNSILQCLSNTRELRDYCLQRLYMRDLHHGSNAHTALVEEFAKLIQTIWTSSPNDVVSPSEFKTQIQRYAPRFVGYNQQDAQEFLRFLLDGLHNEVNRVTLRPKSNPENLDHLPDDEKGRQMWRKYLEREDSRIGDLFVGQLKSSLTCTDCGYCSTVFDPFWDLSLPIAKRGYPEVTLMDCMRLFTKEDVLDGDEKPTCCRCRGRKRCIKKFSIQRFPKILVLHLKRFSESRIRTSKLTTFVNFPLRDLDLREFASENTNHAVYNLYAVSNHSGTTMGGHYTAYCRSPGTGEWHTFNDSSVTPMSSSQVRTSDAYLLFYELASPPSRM
The test can be described thus: Inhibition of USP2 (unknown origin).

The target of test [6] is T5, Ubiquitin carboxyl-terminal hydrolase 8 (Homo sapiens, UniProt P40818).
T5 sequence (P40818 whole entry): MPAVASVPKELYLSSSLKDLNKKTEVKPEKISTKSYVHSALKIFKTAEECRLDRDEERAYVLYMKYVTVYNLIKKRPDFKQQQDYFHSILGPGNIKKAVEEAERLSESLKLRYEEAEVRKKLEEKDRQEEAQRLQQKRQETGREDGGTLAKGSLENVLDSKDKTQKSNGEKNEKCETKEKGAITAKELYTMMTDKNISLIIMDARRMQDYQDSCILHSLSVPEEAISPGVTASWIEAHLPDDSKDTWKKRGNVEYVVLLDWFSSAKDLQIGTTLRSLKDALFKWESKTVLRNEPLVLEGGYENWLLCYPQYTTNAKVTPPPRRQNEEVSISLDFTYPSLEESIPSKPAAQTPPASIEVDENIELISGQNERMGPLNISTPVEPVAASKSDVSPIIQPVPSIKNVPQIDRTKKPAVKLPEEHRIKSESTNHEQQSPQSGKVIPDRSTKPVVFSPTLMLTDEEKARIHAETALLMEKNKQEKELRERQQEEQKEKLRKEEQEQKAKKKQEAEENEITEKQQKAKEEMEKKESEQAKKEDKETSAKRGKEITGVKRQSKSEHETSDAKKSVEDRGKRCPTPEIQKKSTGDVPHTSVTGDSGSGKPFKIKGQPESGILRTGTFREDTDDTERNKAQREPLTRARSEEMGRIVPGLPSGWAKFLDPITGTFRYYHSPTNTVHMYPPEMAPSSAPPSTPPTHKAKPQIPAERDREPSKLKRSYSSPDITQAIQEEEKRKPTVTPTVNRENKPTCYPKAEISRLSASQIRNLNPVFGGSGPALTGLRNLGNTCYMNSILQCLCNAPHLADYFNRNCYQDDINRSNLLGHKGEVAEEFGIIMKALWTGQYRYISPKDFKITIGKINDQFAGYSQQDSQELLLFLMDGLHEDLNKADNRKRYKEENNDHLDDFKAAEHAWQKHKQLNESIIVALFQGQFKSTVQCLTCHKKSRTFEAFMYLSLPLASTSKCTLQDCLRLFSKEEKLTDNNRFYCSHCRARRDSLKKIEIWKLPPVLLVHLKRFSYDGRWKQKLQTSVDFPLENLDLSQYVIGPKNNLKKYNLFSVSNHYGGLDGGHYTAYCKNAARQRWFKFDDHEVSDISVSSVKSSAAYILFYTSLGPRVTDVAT
The experiment in a line: Inhibition of USP8 (unknown origin).

For test [7], the target named is Ubiquitin carboxyl-terminal hydrolase 9X (Homo sapiens) (UniProt Q93008). The test can be described thus: Inhibition of USP9X (unknown origin) at 2.5 uM.
Ubiquitin carboxyl-terminal hydrolase 9X (Homo sapiens), sequence (Q93008 whole entry): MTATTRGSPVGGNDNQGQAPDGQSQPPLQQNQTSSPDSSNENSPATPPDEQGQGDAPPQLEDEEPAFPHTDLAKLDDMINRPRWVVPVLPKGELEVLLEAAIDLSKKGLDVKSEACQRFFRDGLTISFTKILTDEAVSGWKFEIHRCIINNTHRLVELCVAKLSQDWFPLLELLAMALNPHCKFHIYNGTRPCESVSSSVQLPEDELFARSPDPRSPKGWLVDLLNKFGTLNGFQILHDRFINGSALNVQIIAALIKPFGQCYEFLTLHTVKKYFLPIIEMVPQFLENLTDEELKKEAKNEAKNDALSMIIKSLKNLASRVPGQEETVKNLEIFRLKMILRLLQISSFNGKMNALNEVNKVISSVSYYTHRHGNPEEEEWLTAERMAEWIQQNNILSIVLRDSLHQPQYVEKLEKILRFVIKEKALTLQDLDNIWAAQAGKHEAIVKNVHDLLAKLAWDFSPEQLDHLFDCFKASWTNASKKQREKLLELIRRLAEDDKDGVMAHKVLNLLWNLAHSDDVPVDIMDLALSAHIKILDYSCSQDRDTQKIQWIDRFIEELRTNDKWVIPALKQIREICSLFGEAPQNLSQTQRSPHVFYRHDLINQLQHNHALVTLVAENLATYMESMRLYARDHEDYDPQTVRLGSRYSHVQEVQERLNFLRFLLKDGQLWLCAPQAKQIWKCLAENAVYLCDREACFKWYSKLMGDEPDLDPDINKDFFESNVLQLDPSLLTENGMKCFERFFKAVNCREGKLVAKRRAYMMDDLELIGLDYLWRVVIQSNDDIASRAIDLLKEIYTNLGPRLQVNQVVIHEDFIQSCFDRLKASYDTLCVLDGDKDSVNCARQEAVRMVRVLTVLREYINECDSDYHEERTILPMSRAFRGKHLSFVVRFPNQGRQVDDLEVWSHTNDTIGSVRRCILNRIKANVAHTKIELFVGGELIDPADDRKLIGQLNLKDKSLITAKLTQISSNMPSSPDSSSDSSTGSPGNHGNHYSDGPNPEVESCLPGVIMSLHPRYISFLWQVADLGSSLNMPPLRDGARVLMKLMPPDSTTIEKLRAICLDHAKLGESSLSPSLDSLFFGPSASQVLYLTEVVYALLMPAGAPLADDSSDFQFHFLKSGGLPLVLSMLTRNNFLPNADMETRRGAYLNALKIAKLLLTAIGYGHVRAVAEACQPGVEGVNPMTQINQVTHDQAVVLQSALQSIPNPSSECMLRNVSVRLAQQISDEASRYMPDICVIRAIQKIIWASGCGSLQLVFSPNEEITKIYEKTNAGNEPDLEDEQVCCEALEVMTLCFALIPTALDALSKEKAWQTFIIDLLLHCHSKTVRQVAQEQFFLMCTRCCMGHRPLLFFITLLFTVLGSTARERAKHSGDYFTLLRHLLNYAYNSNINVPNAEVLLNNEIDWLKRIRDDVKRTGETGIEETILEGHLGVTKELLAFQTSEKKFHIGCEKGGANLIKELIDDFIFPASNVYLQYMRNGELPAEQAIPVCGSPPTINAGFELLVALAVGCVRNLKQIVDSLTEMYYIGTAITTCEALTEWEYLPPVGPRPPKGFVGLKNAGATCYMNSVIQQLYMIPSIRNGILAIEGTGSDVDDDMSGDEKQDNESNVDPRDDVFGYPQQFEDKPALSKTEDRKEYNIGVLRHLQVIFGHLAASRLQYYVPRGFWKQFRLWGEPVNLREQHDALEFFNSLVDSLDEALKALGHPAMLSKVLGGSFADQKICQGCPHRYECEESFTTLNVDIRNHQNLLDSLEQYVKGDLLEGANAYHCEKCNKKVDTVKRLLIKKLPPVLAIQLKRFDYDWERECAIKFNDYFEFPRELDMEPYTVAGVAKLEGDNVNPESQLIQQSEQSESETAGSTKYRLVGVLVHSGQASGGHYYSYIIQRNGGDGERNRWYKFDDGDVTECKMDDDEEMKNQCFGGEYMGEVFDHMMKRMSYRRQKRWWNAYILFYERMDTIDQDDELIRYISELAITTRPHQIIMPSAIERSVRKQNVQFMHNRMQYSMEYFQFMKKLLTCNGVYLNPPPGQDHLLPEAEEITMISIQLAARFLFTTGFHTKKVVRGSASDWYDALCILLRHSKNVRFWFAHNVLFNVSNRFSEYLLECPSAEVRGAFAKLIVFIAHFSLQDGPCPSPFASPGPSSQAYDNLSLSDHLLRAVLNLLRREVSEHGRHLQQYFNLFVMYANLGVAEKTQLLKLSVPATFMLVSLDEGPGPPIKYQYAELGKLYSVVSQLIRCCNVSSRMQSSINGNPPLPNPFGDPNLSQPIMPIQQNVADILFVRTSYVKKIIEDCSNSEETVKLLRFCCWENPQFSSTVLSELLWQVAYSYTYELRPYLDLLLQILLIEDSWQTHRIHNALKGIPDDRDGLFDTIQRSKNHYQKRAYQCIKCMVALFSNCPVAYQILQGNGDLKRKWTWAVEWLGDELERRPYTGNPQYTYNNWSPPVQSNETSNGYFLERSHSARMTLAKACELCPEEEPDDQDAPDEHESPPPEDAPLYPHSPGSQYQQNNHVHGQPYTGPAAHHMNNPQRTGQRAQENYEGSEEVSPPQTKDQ
Test [8] has as its target T6, Ubiquitin carboxyl-terminal hydrolase 5 (Homo sapiens) (UniProt P45974).
T6 sequence (whole entry): T2 sequence (P45974 whole entry)
The experiment in a line: Inhibition of USP5 (unknown origin) at 2.5 uM.

Test [9] addresses Ubiquitin carboxyl-terminal hydrolase isozyme L1 (Homo sapiens) (UniProt P09936). The test can be described thus: Inhibition of UCH-L1 (unknown origin) at 2.5 uM.

Molecules are shown by their SMILES.

Ubiquitin carboxyl-terminal hydrolase isozyme L1 (Homo sapiens), sequence (P09936 whole entry, looked up): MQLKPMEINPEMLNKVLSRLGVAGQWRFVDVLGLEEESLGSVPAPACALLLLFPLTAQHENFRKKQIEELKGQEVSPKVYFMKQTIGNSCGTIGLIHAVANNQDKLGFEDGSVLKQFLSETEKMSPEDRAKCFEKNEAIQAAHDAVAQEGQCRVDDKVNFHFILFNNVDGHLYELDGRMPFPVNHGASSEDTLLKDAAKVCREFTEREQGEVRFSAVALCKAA

The Kd is the equilibrium constant for the complex coming apart. Read a high Kd as lower affinity. `O=C(O)CNC(=O)c1ccc(S(=O)(=O)N2CCc3ccccc3C2)cc1` returned a Kd in test [1] of 290 µM.

The compound `O=C(O)CNC(=O)c1ccc(S(=O)(=O)N2CCC3(CC2)OCc2ccccc23)cc1` came in with a Kd in test [1] of 440 µM.

`O=C(O)CNC(=O)c1ccc(S(=O)(=O)N2CCC(c3ccccc3)C2)cc1` (stereo unspecified) gave a Kd in test [1] above 1000 µM.

`O=C(O)CNC(=O)c1ccc(S(=O)(=O)N2CCCC(c3ccccc3)CC2)cc1` (stereo unspecified) registered a Kd in test [1] above 640 µM.

Turning to `Cn1cc(S(=O)(=O)N2CCC(c3ccccc3)CC2)cc1C(=O)NCC(=O)O`, the Kd in [1] is above 1000 µM.

In turn, `CN(C)C1CCN(S(=O)(=O)c2ccc(C(=O)NCC(=O)O)cc2)CC1` registered a Kd in [1] above 760 µM.

In turn, `O=C(O)CNC(=O)c1ccc(S(=O)(=O)N2CC(c3ccccc3)C2)cc1` returned a Kd in [1] above 1000 µM.

The compound `CN1CCC2(CC1)CCN(S(=O)(=O)c1ccc(C(=O)NCC(=O)O)cc1)CC2` registered a Kd in test [1] of 410 µM.

Compound `O=C(O)CNC(=O)c1ccc(S(=O)(=O)N2CCN(c3ccccc3)CC2)cc1` displayed a Kd in test [1] above 480 µM.

In [1], `CN1CCC(NS(=O)(=O)c2ccc(C(=O)NCC(=O)O)cc2)CC1` showed a Kd above 1000 µM.

Turning to `O=C(O)CNC(=O)c1cccc(S(=O)(=O)N2CCC(c3ccccc3)CC2)c1`, the Kd in test [1] was above 440 µM.

In test [1], `Cc1cc(S(=O)(=O)N2CCC(c3ccccc3)CC2)ccc1C(=O)NCC(=O)O` registered a Kd of 160 µM.

With `O=C(O)CNC(=O)c1ccc(S(=O)(=O)N2CCC(c3ccccc3)CC2)cc1Cl`, the Kd in [1] is 150 µM.

As to `O=C(O)CNC(=O)c1ccc(S(=O)(=O)N2CCC(N3CCCC3)CC2)cc1`, the Kd in [1] amounted to 520 µM.

Regarding `O=C(O)CNC(=O)c1ccc(S(=O)(=O)N2CC=C(c3ccccc3)CC2)cc1`, the Kd in test [1] came to 340 µM.

Compound `O=C(O)CNC(=O)c1ccc(S(=O)(=O)N2Cc3ccccc3C2)cc1` gave a Kd in test [1] above 480 µM.

In test [1], `O=C(O)CNC(=O)c1ccc(S(=O)(=O)N2CCC(N3CCOCC3)CC2)cc1` had a Kd above 1000 µM.

By EC50 is commonly meant the concentration giving half of the maximal effect. A higher EC50 goes with a less potent agent. Regarding `N#CSc1cc(SC#N)c(N)nc1N`, the EC50 turned out to be 8.6 µM in test [2]; 3.9 µM in [3]; 6.9 µM in test [4]; 7.2 µM in [5]; 4.9 µM in test [6].

Turning to `CN1CCN(C2CCN(S(=O)(=O)c3ccc(C(=O)NCC(=O)O)cc3)CC2)CC1`, the Kd in test [1] is 370 µM.

The inhibition is the relative decrease from the control value, in per cent. Take `CCC[C@H](NC(=O)/C(C#N)=C/c1cccc(Br)n1)c1ccccc1`: the results for the inhibition in test [7], in test [8] and in test [9] were 45%, 50% and 30%, respectively.
